In the Kinase Knowledgebase extract (Sharma et al. 2016):
Several values for one entry are separate records, joined by “and”; a condition that tells them apart may be missing. Equal values may be shown once.

Molecular target: CDK2 (human) (UniProt P24941)
Experiment: Enzyme Assay

SMILES | IC50
N[C@H]1CC[C@H](Nc2nc(NC3CCN(Cc4cc(F)ccc4F)CC3)c3ncn(C4CCCC4)c3n2)CC1 | 670 nM and 220 nM and 510 nM
COc1cccc(CN2CCC(Nc3nc(N[C@H]4CC[C@H](N)CC4)nc4c3ncn4C3CCCC3)CC2)c1 | 140 nM and 300 nM and 340 nM
Cc1ccc(CN2CCC(Nc3nc(N[C@H]4CC[C@H](N)CC4)nc4c3ncn4C3CCCC3)CC2)cc1 | 170 nM and 230 nM
COc1ccccc1CN1CCC(Nc2nc(N[C@H]3CC[C@H](N)CC3)nc3c2ncn3C2CCCC2)CC1 | 240 nM and 110 nM and 80 nM
Cc1ccc(CN2CCC(Nc3nc(N[C@H]4CC[C@H](N)CC4)nc4c3ncn4C3CCCC3)CC2)cc1Cl | 120 nM and 320 nM
N[C@H]1CC[C@H](Nc2nc(NC3CCN(Cc4ccc(F)cc4)CC3)c3ncn(C4CCCC4)c3n2)CC1 | 1700 nM
N[C@H]1CC[C@H](Nc2nc(Nc3ccccc3)c3ncn(C4CCCC4)c3n2)CC1 | 5.4 nM
